Where two headings read alike, the source gives them in different places.
Columns and labels:
Format in all cases: binding
broad panel of kinases [1] = target: broad panel of kinases (Homo sapiens, UniProt O75747); settings: PIK3C2G; 1 μM
broad panel of kinases [2] = target: broad panel of kinases (Homo sapiens, UniProt O94921); settings: PFTK1; 1 μM
broad panel of kinases [3] = target: broad panel of kinases (Homo sapiens, UniProt P00519, F317L); settings: 1 μM
broad panel of kinases [4] = target: broad panel of kinases (Homo sapiens, UniProt P04626); settings: ERBB2; 1 μM
broad panel of kinases [5] = target: broad panel of kinases (Homo sapiens, UniProt P08069); settings: IGF1R; 1 μM
broad panel of kinases [6] = target: broad panel of kinases (Homo sapiens, UniProt P09769); settings: FGR; 1 μM
broad panel of kinases [7] = target: broad panel of kinases (Homo sapiens, UniProt P0C1S8); settings: WEE2; 1 μM
broad panel of kinases [8] = target: broad panel of kinases (Homo sapiens, UniProt P10721, T670I/V559D); settings: KIT(V559D, T670I); 1 μM
broad panel of kinases [9] = target: broad panel of kinases (Homo sapiens, UniProt P15056, V600E); settings: BRAF(V600E); 1 μM
broad panel of kinases [10] = target: broad panel of kinases (Homo sapiens, UniProt P33981); settings: TTK; 1 μM
broad panel of kinases [11] = target: broad panel of kinases (Homo sapiens, UniProt P42684); settings: ABL2; 1 μM
broad panel of kinases [12] = target: broad panel of kinases (Homo sapiens, UniProt P49760); settings: CLK2; 1 μM
broad panel of kinases [13] = target: broad panel of kinases (Homo sapiens, UniProt P49840); settings: GSK3A; 1 μM
broad panel of kinases [14] = target: broad panel of kinases (Homo sapiens, UniProt P52564); settings: MEK6; 1 μM
broad panel of kinases [15] = target: broad panel of kinases (Homo sapiens, UniProt P53671); settings: LIMK2; 1 μM
broad panel of kinases [16] = target: broad panel of kinases (Homo sapiens, UniProt P54753); settings: EPHB3; 1 μM
broad panel of kinases [17] = target: broad panel of kinases (Homo sapiens, UniProt Q02156); settings: PRKCE; 1 μM
broad panel of kinases [18] = target: broad panel of kinases (Homo sapiens, UniProt Q06418); settings: TYRO3; 1 μM
broad panel of kinases [19] = target: broad panel of kinases (Homo sapiens, UniProt Q08345); settings: DDR1; 1 μM
broad panel of kinases [20] = target: broad panel of kinases (Homo sapiens, UniProt Q12866); settings: MERTK; 1 μM
broad panel of kinases [21] = target: broad panel of kinases (Homo sapiens, UniProt Q13177); settings: PAK2; 1 μM
broad panel of kinases [22] = target: broad panel of kinases (Homo sapiens, UniProt Q13237); settings: PRKG2; 1 μM
broad panel of kinases [23] = target: broad panel of kinases (Homo sapiens, UniProt Q13464); settings: ROCK1; 1 μM
broad panel of kinases [24] = target: broad panel of kinases (Homo sapiens, UniProt Q13873); settings: BMPR2; 1 μM
broad panel of kinases [25] = target: broad panel of kinases (Homo sapiens, UniProt Q14012); settings: CAMK1; 1 μM
broad panel of kinases [26] = target: broad panel of kinases (Homo sapiens, UniProt Q15831); settings: LKB1; 1 μM
broad panel of kinases [27] = target: broad panel of kinases (Homo sapiens, UniProt Q15835); settings: GRK1; 1 μM
broad panel of kinases [28] = target: broad panel of kinases (Homo sapiens, UniProt Q16288); settings: TRKC; 1 μM
broad panel of kinases [29] = target: broad panel of kinases (Homo sapiens, UniProt Q16539); settings: p38-alpha; 1 μM
broad panel of kinases [30] = target: broad panel of kinases (Homo sapiens, UniProt Q16832); settings: DDR2; 1 μM
broad panel of kinases [31] = target: broad panel of kinases (Homo sapiens, UniProt Q56UN5); settings: YSK4; 1 μM
broad panel of kinases [32] = target: broad panel of kinases (Homo sapiens, UniProt Q7KZI7); settings: MARK2; 1 μM
broad panel of kinases [33] = target: broad panel of kinases (Homo sapiens, UniProt Q8TDX7); settings: NEK7; 1 μM
broad panel of kinases [34] = target: broad panel of kinases (Homo sapiens, UniProt Q8TF76); settings: HASPIN; 1 μM
broad panel of kinases [35] = target: broad panel of kinases (Homo sapiens, UniProt Q9NRH2); settings: SNRK; 1 μM
broad panel of kinases [36] = target: broad panel of kinases (Homo sapiens, UniProt Q9NRP7); settings: STK36; 1 μM
broad panel of kinases [37] = target: broad panel of kinases (Homo sapiens, UniProt Q9UM73, L1196M); settings: ALK(L1196M); 1 μM
broad panel of kinases (Homo sapiens, UniProt Q9UM73, L1196M), sequence (Q9UM73 19-1620 L1196M limits assumed): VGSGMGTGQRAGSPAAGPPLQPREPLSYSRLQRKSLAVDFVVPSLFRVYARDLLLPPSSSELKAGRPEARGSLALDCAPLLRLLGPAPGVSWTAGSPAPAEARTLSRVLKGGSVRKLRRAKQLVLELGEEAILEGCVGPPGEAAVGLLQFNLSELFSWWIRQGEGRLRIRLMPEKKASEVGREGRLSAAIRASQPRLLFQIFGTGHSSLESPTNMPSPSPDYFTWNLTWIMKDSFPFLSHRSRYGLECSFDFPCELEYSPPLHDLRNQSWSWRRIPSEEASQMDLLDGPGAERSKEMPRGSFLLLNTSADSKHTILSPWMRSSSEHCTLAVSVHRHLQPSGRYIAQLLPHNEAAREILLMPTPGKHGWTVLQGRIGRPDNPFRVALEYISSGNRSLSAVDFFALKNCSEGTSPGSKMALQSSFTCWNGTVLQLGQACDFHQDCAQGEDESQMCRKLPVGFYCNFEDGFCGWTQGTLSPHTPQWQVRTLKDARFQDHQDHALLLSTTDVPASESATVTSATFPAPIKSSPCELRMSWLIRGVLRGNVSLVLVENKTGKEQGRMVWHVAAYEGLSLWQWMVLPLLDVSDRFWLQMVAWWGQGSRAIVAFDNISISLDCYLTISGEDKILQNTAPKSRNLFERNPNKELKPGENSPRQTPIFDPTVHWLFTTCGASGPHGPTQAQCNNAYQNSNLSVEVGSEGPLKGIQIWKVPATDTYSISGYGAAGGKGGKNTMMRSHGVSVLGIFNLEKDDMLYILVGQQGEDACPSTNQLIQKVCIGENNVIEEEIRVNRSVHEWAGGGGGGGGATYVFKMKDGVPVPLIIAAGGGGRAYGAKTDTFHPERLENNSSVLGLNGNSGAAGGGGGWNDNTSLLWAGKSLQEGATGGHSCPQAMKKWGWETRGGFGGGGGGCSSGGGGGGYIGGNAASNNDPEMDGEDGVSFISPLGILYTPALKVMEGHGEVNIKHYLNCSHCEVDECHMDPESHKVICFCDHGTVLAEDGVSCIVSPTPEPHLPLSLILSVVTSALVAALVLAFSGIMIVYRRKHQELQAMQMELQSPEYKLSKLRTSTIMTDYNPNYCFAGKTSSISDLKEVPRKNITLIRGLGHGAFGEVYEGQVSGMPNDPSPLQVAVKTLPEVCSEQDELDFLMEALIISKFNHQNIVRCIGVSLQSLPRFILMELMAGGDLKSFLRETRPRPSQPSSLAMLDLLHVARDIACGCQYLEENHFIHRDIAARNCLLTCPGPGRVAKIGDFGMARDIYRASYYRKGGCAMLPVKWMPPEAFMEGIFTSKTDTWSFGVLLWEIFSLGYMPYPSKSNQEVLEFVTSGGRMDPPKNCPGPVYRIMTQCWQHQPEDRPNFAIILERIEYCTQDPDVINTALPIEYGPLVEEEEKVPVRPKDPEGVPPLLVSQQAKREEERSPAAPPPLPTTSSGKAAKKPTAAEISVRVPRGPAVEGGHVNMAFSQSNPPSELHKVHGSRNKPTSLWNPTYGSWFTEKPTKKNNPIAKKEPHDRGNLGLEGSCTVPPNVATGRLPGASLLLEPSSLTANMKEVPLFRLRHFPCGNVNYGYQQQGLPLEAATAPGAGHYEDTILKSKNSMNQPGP

broad panel of kinases (Homo sapiens, UniProt Q13873), sequence (Q13873 27-1038 limits assumed): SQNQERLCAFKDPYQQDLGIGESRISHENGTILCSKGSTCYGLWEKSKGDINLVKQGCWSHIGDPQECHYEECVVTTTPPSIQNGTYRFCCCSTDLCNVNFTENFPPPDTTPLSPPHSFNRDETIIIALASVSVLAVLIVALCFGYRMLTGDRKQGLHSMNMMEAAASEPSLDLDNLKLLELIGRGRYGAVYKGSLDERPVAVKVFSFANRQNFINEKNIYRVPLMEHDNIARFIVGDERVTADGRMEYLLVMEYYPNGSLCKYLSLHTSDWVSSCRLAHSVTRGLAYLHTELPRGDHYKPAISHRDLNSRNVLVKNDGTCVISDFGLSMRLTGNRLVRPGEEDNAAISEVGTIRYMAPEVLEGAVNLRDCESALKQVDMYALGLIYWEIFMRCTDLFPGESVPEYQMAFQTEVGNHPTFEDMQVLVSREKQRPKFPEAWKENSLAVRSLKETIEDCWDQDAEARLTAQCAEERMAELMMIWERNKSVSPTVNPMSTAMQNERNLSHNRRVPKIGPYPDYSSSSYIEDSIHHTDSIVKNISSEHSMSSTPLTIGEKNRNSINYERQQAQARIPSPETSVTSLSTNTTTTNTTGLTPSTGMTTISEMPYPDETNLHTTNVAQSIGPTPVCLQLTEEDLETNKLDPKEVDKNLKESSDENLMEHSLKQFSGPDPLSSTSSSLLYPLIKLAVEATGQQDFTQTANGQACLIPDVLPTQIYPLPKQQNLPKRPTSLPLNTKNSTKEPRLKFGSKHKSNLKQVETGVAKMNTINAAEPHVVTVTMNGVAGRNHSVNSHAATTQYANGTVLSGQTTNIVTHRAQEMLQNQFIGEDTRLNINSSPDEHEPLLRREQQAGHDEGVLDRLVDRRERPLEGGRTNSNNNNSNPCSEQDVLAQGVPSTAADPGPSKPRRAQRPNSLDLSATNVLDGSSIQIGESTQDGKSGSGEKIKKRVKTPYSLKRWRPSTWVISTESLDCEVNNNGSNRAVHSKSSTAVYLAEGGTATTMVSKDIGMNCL
broad panel of kinases (Homo sapiens, UniProt Q13177), sequence (Q13177 2-524 limits assumed): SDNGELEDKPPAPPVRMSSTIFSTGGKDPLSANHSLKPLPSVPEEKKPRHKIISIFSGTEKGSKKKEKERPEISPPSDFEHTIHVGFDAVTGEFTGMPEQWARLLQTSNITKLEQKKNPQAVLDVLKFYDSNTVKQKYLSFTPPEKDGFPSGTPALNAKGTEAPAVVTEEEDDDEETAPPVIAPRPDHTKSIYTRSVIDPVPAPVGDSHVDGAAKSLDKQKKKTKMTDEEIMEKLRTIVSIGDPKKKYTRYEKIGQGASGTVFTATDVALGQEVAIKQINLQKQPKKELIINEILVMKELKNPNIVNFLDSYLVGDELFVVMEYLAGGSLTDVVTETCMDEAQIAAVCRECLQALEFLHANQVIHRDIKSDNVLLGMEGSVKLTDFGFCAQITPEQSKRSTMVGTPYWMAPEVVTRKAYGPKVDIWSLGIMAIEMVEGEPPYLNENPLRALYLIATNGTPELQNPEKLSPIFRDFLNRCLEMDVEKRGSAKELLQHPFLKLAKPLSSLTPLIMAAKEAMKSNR
broad panel of kinases (Homo sapiens, UniProt Q12866), sequence (Q12866 21-999 limits assumed): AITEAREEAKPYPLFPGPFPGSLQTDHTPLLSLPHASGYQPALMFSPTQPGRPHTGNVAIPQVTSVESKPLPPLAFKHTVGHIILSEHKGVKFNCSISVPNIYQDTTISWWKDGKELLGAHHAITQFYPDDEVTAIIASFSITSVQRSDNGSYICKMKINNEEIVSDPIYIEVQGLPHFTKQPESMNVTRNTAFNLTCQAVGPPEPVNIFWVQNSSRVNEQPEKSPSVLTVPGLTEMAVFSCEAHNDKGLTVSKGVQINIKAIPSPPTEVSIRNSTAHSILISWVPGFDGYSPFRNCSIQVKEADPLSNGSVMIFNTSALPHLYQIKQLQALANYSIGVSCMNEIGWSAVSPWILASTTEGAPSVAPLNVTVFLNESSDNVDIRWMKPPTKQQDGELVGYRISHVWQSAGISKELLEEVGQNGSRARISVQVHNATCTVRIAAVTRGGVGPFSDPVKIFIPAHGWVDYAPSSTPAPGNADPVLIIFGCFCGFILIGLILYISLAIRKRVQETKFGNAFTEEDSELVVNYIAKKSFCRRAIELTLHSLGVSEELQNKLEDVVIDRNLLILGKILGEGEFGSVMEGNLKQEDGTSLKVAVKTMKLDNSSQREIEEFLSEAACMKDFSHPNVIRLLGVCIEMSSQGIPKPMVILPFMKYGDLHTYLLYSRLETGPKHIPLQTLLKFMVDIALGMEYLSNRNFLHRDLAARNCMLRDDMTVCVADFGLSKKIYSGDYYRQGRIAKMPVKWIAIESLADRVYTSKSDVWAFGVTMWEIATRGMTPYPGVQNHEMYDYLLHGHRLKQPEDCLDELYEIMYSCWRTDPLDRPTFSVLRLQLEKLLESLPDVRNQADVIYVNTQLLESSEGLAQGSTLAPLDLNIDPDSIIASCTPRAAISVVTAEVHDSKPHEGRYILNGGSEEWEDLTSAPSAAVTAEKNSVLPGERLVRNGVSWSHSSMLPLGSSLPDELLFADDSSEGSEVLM
broad panel of kinases (Homo sapiens, UniProt Q16288), sequence (Q16288 32-839 limits assumed): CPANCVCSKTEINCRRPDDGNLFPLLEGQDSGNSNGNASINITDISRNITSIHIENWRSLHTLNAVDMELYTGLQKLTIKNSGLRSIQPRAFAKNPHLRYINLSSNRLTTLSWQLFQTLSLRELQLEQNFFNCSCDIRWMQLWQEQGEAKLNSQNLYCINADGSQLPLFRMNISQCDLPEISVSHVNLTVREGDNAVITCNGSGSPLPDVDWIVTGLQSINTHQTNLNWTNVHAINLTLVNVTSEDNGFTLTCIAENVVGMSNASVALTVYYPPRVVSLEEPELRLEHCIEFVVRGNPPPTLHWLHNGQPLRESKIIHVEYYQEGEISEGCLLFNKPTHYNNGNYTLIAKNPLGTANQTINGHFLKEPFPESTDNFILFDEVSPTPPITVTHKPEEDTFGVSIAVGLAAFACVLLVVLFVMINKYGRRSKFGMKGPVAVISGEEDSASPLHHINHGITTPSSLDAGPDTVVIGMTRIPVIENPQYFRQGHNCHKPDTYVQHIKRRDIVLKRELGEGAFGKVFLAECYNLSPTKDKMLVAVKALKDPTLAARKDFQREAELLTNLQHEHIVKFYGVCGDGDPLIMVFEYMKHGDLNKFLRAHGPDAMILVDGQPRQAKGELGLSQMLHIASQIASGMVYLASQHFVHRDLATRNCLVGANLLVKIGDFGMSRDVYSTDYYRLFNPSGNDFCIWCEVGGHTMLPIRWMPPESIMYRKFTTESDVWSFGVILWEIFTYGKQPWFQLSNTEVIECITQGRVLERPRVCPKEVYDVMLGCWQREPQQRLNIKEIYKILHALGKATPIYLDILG

Compound	percent of control binding remaining (lower = stronger binding) (broad panel of kinases [1]) [%]	percent of control binding remaining (lower = stronger binding) (broad panel of kinases [2]) [%]	percent of control binding remaining (lower = stronger binding) (broad panel of kinases [4]) [%]	percent of control binding remaining (lower = stronger binding) (broad panel of kinases [5]) [%]	percent of control binding remaining (lower = stronger binding) (broad panel of kinases [6]) [%]	percent of control binding remaining (lower = stronger binding) (broad panel of kinases [7]) [%]	percent of control binding remaining (lower = stronger binding) (broad panel of kinases [8]) [%]	percent of control binding remaining (lower = stronger binding) (broad panel of kinases [9]) [%]	percent of control binding remaining (lower = stronger binding) (broad panel of kinases [10]) [%]	percent of control binding remaining (lower = stronger binding) (broad panel of kinases [11]) [%]	percent of control binding remaining (lower = stronger binding) (broad panel of kinases [12]) [%]	percent of control binding remaining (lower = stronger binding) (broad panel of kinases [13]) [%]	percent of control binding remaining (lower = stronger binding) (broad panel of kinases [14]) [%]	percent of control binding remaining (lower = stronger binding) (broad panel of kinases [15]) [%]	percent of control binding remaining (lower = stronger binding) (broad panel of kinases [16]) [%]	percent of control binding remaining (lower = stronger binding) (broad panel of kinases [17]) [%]	percent of control binding remaining (lower = stronger binding) (broad panel of kinases [18]) [%]	percent of control binding remaining (lower = stronger binding) (broad panel of kinases [19]) [%]	percent of control binding remaining (lower = stronger binding) (broad panel of kinases [20]) [%]	percent of control binding remaining (lower = stronger binding) (broad panel of kinases [21]) [%]	other results
C=CC(=O)N1CC[C@H](Nc2nc(CN3CCOCC3)cc(Nc3ncc(C(=O)Nc4c(C)cccc4C)s3)n2)C1 [Example I-2]	92	72	7.5	100	0.1	100	100	1.6	100	0.3	100	100	82	51	0	100	41	0.2	90	92	percent of control binding remaining (lower = stronger binding) (broad panel of kinases [3]; ABL1(F317L)-nonphosphorylated): 0%; percent of control binding remaining (lower = stronger binding) (broad panel of kinases [3]; ABL1(F317L)-phosphorylated): 0.5%; percent of control binding remaining (lower = stronger binding) (broad panel of kinases [22]): 99%; percent of control binding remaining (lower = stronger binding) (broad panel of kinases [23]): 88%; percent of control binding remaining (lower = stronger binding) (broad panel of kinases [24]): 100%; percent of control binding remaining (lower = stronger binding) (broad panel of kinases [25]): 91%; percent of control binding remaining (lower = stronger binding) (broad panel of kinases [26]): 100%; percent of control binding remaining (lower = stronger binding) (broad panel of kinases [27]): 94%; percent of control binding remaining (lower = stronger binding) (broad panel of kinases [28]): 99%; percent of control binding remaining (lower = stronger binding) (broad panel of kinases [29]): 0.1%; percent of control binding remaining (lower = stronger binding) (broad panel of kinases [30]): 8.6%; percent of control binding remaining (lower = stronger binding) (broad panel of kinases [31]): 100%; percent of control binding remaining (lower = stronger binding) (broad panel of kinases [32]): 100%; percent of control binding remaining (lower = stronger binding) (broad panel of kinases [33]): 100%; percent of control binding remaining (lower = stronger binding) (broad panel of kinases [34]): 100%; percent of control binding remaining (lower = stronger binding) (broad panel of kinases [35]): 100%; percent of control binding remaining (lower = stronger binding) (broad panel of kinases [36]): 3.5%; percent of control binding remaining (lower = stronger binding) (broad panel of kinases [37]): 72%
C=CC(=O)N1CC[C@H](Nc2nccc(Nc3ncc(C(=O)Nc4c(C)cccc4C)s3)n2)C1 [Example I-3]	97	99	0.8	100	0	97	100	2.1	78	0.25	96	97	89	65	0	100	41	0.15	100	93	% change compared to control (broad panel of kinases [3]; ABL1(F317L)-nonphosphorylated): 0.5%; % change compared to control (broad panel of kinases [3]; ABL1(F317L)-phosphorylated): 2%; percent of control binding remaining (lower = stronger binding) (broad panel of kinases [22]): 91%; percent of control binding remaining (lower = stronger binding) (broad panel of kinases [23]): 89%; percent of control binding remaining (lower = stronger binding) (broad panel of kinases [24]): 100%; percent of control binding remaining (lower = stronger binding) (broad panel of kinases [25]): 63%; percent of control binding remaining (lower = stronger binding) (broad panel of kinases [26]): 100%; percent of control binding remaining (lower = stronger binding) (broad panel of kinases [27]): 97%; percent of control binding remaining (lower = stronger binding) (broad panel of kinases [28]): 96%; percent of control binding remaining (lower = stronger binding) (broad panel of kinases [29]): 0.2%; percent of control binding remaining (lower = stronger binding) (broad panel of kinases [30]): 8.4%; percent of control binding remaining (lower = stronger binding) (broad panel of kinases [31]): 100%; percent of control binding remaining (lower = stronger binding) (broad panel of kinases [32]): 80%; percent of control binding remaining (lower = stronger binding) (broad panel of kinases [33]): 98%; percent of control binding remaining (lower = stronger binding) (broad panel of kinases [34]): 88%; percent of control binding remaining (lower = stronger binding) (broad panel of kinases [35]): 92%; percent of control binding remaining (lower = stronger binding) (broad panel of kinases [36]): 25%; percent of control binding remaining (lower = stronger binding) (broad panel of kinases [37]): 76%
